Laboratory results from US20070105961A1, “1-Amino-alkylcyclohexanes as 5-HT3 and neuronal nicotinic receptor antagonists” (MERZ PHARMA GMBH & CO. KGAA, priority 2000, published 2007).
pIC50, pKi: −log10 of the molar value. Where two headings read alike, the source gives them in different places.

Tests used:
[1] = target: T1, 5-HT3 receptors (Mus musculus, UniProt P23979); assay: patch clamp, antagonism of serotonin-induced inward currents in N1E-115 cells; format: cell-based; details: serotonin (10 μM) applied for 2 secs, read-out: 5HT3 IC50 against steady-state responses
T1 construct: against “steady-state” responses of N1E-115 cells to serotonin (10 μM); host or cells: N1E-115 cells
T1 sequence (P23979 24-489): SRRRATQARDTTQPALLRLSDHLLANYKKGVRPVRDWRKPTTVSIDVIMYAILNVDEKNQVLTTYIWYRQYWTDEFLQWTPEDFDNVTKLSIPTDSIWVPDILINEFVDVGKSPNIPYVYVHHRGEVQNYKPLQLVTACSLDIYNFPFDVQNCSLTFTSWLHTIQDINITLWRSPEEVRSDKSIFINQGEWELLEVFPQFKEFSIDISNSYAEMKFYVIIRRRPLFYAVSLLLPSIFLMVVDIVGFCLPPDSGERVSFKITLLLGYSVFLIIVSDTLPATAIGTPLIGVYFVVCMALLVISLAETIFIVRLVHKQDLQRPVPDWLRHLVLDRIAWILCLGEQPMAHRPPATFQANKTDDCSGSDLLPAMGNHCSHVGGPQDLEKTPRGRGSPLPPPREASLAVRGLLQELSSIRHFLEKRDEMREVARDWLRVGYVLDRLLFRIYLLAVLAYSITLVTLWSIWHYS
Description: N1E-115 cells were purchased from the European collection of cell cultures (ECACC, Salisbury, UK) and stored at −80° C. until further use. The cells were plated at a density of 100,000 cells cm^−2 onto plastic Petri dishes (Falcon) and were nourished with NaHCO3/HEPES-buffered minimum essential medium (MEM) supplemented with 15% foetal calf serum (Gibco) and incubated at 37° C. with 5% CO2 at 95% humidity. The medium was exchanged completely daily. Once every three days, cells were re-seeded onto fresh Petri dishes following treatment with trypsin-EDTA (1% in PBS), resuspension in MEM, and centrifugation at 1000 for 4 mins.
Patch clamp recordings were made from lifted cells, 2-3 days following seeding with polished glass electrodes (2-3 MΩ) in the whole cell mode at room temperature (20-22° C.) with an EPC-7 amplifier (List). Test substances were applied as for hippocampal cells. The contents of the intracellular solution were as follows (mM): CsCl (130), HEPES (10), EGTA (10), MgCl2 (2), CaCl2 (2), K-ATP (2), Tris-GTP (0.2), D-Glucose (10); pH was adjusted to 7.3 with CsOH or HCl. The extracellular solutions had the following basic composition (mM): NaCl (124), KCl (2.8), HEPES (10), pH 7.3 with NaOH or HCl.
Only results from stable cells were accepted for inclusion in the final analysis, i.e., showing at least 75% recovery of responses to agonist (serotonin or Ach) following removal of the antagonist tested. Despite this, recovery from drug actions wasn't always 100% because of rundown in some cells (<=10% over 10 mins). When present, this was always compensated by basing the % antagonism at each concentration on both control and recovery and assuming a linear time course for this rundown. All antagonists were assessed at steady-state blockade with 3 to 6 concentrations on at least 5 cells. Equilibrium blockade was achieved within 2 to 5 agonist applications, depending on antagonist concentration.
FIG. 1A and FIG. 1B show concentration-dependence of the blockade of 5HT3 receptors by MRZ 2/633 in cultured N1E-115 cells. Serotonin (10 μM) was applied for 2 seconds every 30 seconds in the continuous presence of various concentrations of MRZ 2/633 (1-10 μM).
B: Peak and steady-state (plateau) serotonin current responses were normalized to control levels and plotted as means (±SEM) against MRZ 2/633 concentration (n=8). Estimation of IC50s and curve fitting were made according to the 4 parameter logistic equation (GraFit, Erithacus Software).

[2] = target: T2, NMDA receptors; details: rat cortical membranes, cited from earlier work
T2 construct: other: rat cortical membranes

[3] = target: T3, NMDA receptors; details: at −70 mV, cultured rat hippocampal neurones, cited from earlier work
T3 construct: PC NMDA (antagonism of NMDA-induced inward currents); other: at −70 mV, cultured rat hippocampal neurones; PC (PC NMDA, antagonism of NMDA-induced inward currents)

[4] = target: T4, α7 neuronal nicotinic receptors (Rattus norvegicus, UniProt Q05941); assay: patch clamp, antagonism of Ach-induced inward currents in cultured hippocampal neurones; format: cell-based
T4 construct: against peak responses of cultured hippocampal neurones to Ach (1 mM) applied for 2 secs; endogenous in cells; host or cells: cultured rat embryonic hippocampal neurones
T4 sequence (Q05941 23-502): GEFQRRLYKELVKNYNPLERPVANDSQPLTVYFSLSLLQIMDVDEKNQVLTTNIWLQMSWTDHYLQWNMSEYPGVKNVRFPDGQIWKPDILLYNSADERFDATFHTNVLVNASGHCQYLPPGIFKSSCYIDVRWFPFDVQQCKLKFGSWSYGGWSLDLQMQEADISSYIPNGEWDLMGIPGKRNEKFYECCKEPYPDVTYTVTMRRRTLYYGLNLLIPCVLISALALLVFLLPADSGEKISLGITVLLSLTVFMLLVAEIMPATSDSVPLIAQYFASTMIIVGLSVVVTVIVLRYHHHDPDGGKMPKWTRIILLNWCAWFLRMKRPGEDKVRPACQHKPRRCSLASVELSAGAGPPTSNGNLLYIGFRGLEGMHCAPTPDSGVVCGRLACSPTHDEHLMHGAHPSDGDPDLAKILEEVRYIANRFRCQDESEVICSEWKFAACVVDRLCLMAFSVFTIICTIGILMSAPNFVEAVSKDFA

[5] = read-out: [3H]MK- (displacement of [3H]MK-801 binding), Table 2
[6] = Table 2, read-out: PC NMDA (antagonism of NMDA-induced inward currents)
[7] = read-out: [3H]MK (displacement of [3H]MK-801 binding), Table 3
[8] = Table 3, read-out: PC (PC NMDA, antagonism of NMDA-induced inward currents)
[9] = cultured hippocampal neurones, Ach (1 mM) applied for 2 secs, read-out: PC Ach IC50 against peak responses

| SMILES | pIC50 [4, 9] | fold more effective as α7 neuronal nicotinic antagonist than as NMDA receptor antagonist ([4]; Table 3 and FIG. 4) [fold] | pIC50 [1] | pKi [2, 5] | pIC50 [3, 6] | pIC50 [4] | pKi [2, 7] | pIC50 [3, 8] | α7 neuronal nicotinic antagonism (in words) ([4]; hippocampal neurones) |
| --- | --- | --- | --- | --- | --- | --- | --- | --- | --- |
| CC[C@@H]1CC(C)(C)C[C@](C)(N)C1 (relative stereo) [MRZ 2/632, 1-Amino-1,3,3-trimethyl-5(cis)ethylcyclohexane] |  |  | 5.62 | 5.55 | 5.19 |  |  |  |  |
| CN(C)C1(C)CC(C)(C)CC(C)(C)C1 [MRZ 2/642, N,N-dimethyl-1-amino-1,3,3,5,5-pentamethylcyclohexane] |  |  | 4.45 | 4.97 | 4.37 | 6.00 | 4.97 | 4.37 |  |
| CCCC1(N)CC(C)(C)CC(C)(C)C1 [MRZ 2/601, 1-Amino-1-propyl-3,3,5,5-tetramethylcyclohexane] |  |  | 5.89 | 5.11 | 5.00 |  |  |  |  |
| C[C@@H]1CC(C)(C)C[C@@](C)(N)C1 (relative stereo) [MRZ 2/607, 1-Amino-1,3,3,5(trans)-tetramethylcyclohexane (axial amino group)] |  |  | 4.65 | 5.11 | 4.86 |  |  |  |  |
| CC[C@@H]1CC(C)(C)C[C@@](C)(N)C1 (relative stereo) [MRZ 2/633, 1-Amino-1,3,3-trimethyl-5(trans)ethylcyclohexane] |  |  | 5.11 | 5.33 | 4.86 |  |  |  |  |
| CC1(C)CCCC(C)(N)C1 (centres unmarked) [MRZ 2/621, 1-Amino-1,3,3-trimethylcyclohexane] |  |  | 4.69 | 4.51 | 4.03 | 6.19 | 4.51 | 4.03 |  |
| CCC[C@H]1CCC[C@](C)(N)C1 (relative stereo) [MRZ 2/627, 1-Amino-1-methyl-3(trans)propylcyclohexane] | 5.59 |  |  |  |  |  | 4.17 | 3.82 |  |
| CNC1(C)CC(C)(C)CC(C)(C)C1 [MRZ 2/640, N-methyl-1-Amino-1,3,3,5.5-pentamethylcyclohexane] |  |  | 4.97 | 5.32 | 4.84 |  |  |  |  |
| CC[C@H]1CCC[C@](C)(N)C1 (relative stereo) [MRZ 2/629, 1-Amino-1-methyl-3(trans)ethylcyclohexane] | 5.69 |  |  |  |  |  | 4.33 | 3.66 |  |
| C[C@H]1CCC[C@](C)(N)C1 (relative stereo) [MRZ 2/625, 1-Amino-1,3(trans)-dimethylcyclohexane] | 5.48 |  |  |  |  |  | 4.31 | 3.61 |  |

Continued, in another order:

| pIC50 [4, 9] | fold more effective as α7 neuronal nicotinic antagonist than as NMDA receptor antagonist ([4]; Table 3 and FIG. 4) [fold] | SMILES | pIC50 [1] | pKi [2, 5] | pIC50 [3, 6] | pIC50 [4] | pKi [2, 7] | pIC50 [3, 8] | α7 neuronal nicotinic antagonism (in words) ([4]; hippocampal neurones) |
| --- | --- | --- | --- | --- | --- | --- | --- | --- | --- |
| 5.61 |  | CCC1(C)CCCC(C)(N)C1 (centres unmarked) [MRZ 2/620, 1-Amino-1,3-dimethyl-3-ethylcyclohexane] |  |  |  |  | 4.62 | 4.00 |  |
| 5.94 |  | CCCC1(C)CCCC(C)(N)C1 (mixture of isomers) [MRZ 2/617, 1-Amino-1,3-dimethyl-3-propylcyclohexane (mixture of diastereomers)] |  |  |  |  | 4.44 | 4.19 |  |
| 5.66 |  | CCC1(C)CC(C)(C)CC(C)(N)C1 (mixture of isomers) [MRZ 2/615, 1-Amino-1,3,5,5-tetramethyl-3-ethylcyclohexane (mixture of diastereomers)] | 5.60 | 5.64 | 5.89 |  | 5.64 | 5.54 |  |
| 5.47 |  | CC1CC(C)CC(C)(N)C1 (mixture of isomers) [MRZ 2/616, 1-Amino-1,3,5-trimethylcyclohexane (mixture of diastereomers)] | 4.41 | 4.98 | 4.48 |  | 5.00 | 4.48 | much more potent in this regard than previously reported for NMDA receptors |
| 6.19 |  | CCCC1(C)CC(C)CC(C)(N)C1 (stereo not drawn) [MRZ 2/618, 1-Amino-1,3(trans),5(trans)-trimethyl-3(cis)-propylcyclohexane] |  |  |  |  | 4.64 | 4.24 |  |
| 5.89 | 16 | CC1(C)CC(C)(C)CC(C)(N2CCCC2)C1 [MRZ 2/705, N-(1,3,3,5,5-pentamethylcyclohexyl)pyrrolidine] |  |  |  |  | 5.15 | 4.68 |  |
| 5.62 |  | CC1(N)CCCCC1 [MRZ 2/641, 1-Amino-1-methylcyclohexane] |  |  |  |  | 3.87 | < 4.00 |  |
| 4.52 |  | CC1(C)CC(C)(C)CC(C)(N)C1 [MRZ 2/579, 1-Amino-1,3,3,5,5-pentamethylcyclohexane] | 5.77 | 5.85 | 5.89 |  | 5.84 | 5.89 |  |
